Data taken from patent US12329815B2, “Acoustic driven drug delivery systems” (UNIVERSITY OF OTAGO, priority 2015, dated 2025).

Tests used:
[1] = in vivo; cited from earlier work
[2] = system: entorhinal cortex (EC) slices; experiment: Low Mg2+ (Mg2+-free) in vitro model of epilepsy: frequency of epileptiform events; format: cell-based, Wistar rats; details: 10 μM non-liposomal, 15 min wash-in; n=4 slices
From the text: In the ‘low Mg^2+’ in vitro model of epilepsy the susceptibility of the entorhinal cortex (EC) to seizure activity is exploited by acutely bathing EC slices in Mg^2+-free artificial cerebrospinal fluid (ACSF). The removal of Mg^2+ from the extracellular environment consequently removes the normal Mg^2+ block on the N-Methyl-D-aspartic acid (NMDA) receptor. […]
Recordings from the tissue chamber were made using Ag/AgCl pellet electrodes (Harvard Apparatus, UK). The signal was collected on a chart recorder (Semat, UK) or digitally recorded (Neurolog, UK). […] Digitally recorded signals were amplified (×100 gain) and high-pass filtered (8.9 Hz cut-off). […] Drugs were applied via the perfusate (Mg^2+-free ACSF) and the frequency of epileptiform events (SLEs or LRDs) were measured before and during drug application. […]
To determine the effect of control drug solutions on the frequency of epileptiform activity, the frequency of events 30 min (in most cases) prior to drug application (pre-drug) was compared with the frequency of events during the wash-in period (15 min). For the drug delivered in liposomes, in addition to the frequency of pre-drug events and during wash-in, the frequency of events during 30 min immediately after the application of the ultrasound trigger was also quantified. […]

SMILES	fraction crossing the blood-brain barrier [1]	reduction in epileptiform activity [2]
N[C@@H](Cc1ccc(O)c(O)c1)C(=O)O [levodopa]	5-10%	
NCc1cc(O)no1 [muscimol, 5-(aminomethyl)-isoxazol-3-ol]		85%±14
